Laboratory results published in publication PMC5392334, “Discovery and characterization of a novel irreversible EGFR mutants selective and potent kinase inhibitor CHMFL-EGFR-26 with a distinct binding mode” (Oncotarget, 2017).

Tests used:
CDKL2 = target: T1, CDKL2 (Homo sapiens, UniProt Q92772); test: KinomeScan; assay type: binding; conditions: read-out: % control
T1 construct: purchased DiscoveRx KINOMEscan

MAP4K4 = target: T2, MAP4K4 (Homo sapiens, UniProt O95819); test: KinomeScan; assay type: binding; conditions: read-out: % control
T2 construct: purchased DiscoveRx KINOMEscan

HCK = target: T3, HCK (Homo sapiens, UniProt P08631); test: KinomeScan; assay type: binding; conditions: read-out: % control
T3 construct: purchased DiscoveRx KINOMEscan
T3 sequence (P08631 whole entry): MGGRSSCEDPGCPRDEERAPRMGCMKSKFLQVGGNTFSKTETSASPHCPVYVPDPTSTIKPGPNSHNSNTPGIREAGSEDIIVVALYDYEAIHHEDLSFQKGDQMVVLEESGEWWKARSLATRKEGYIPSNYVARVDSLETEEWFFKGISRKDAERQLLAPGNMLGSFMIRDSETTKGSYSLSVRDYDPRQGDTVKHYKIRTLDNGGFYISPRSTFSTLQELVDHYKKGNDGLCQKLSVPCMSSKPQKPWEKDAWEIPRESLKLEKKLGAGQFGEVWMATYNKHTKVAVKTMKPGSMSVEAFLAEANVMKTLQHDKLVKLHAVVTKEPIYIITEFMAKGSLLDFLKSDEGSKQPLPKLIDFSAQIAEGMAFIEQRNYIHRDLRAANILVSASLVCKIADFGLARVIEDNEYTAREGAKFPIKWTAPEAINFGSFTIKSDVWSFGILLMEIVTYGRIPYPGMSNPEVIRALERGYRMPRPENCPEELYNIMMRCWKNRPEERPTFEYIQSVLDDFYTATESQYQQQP

ROCK2 = target: T4, ROCK2 (Homo sapiens, UniProt O75116); test: KinomeScan; assay type: binding; conditions: read-out: % control
T4 construct: purchased DiscoveRx KINOMEscan

MAP3K4 = target: T5, MAP3K4 (Homo sapiens, UniProt Q9Y6R4); test: KinomeScan; assay type: binding; conditions: read-out: % control
T5 construct: purchased DiscoveRx KINOMEscan

BaF3-FL-EGFR-L858R-T790M = test: Anti-proliferation, BaF3 isogenic cell lines (CellTiter-Glo); assay type: cell-based; conditions: Mus musculus, 72 hours, triplet testing
HIPK4 = target: T6, HIPK4 (Homo sapiens, UniProt Q8NE63); test: KinomeScan; assay type: binding; conditions: read-out: % control
T6 construct: purchased DiscoveRx KINOMEscan

SRPK2 = target: T7, SRPK2 (Homo sapiens, UniProt P78362); test: KinomeScan; assay type: binding; conditions: read-out: % control
T7 construct: purchased DiscoveRx KINOMEscan

TAOK3 = target: T8, TAOK3 (Homo sapiens, UniProt Q9H2K8); test: KinomeScan; assay type: binding; conditions: read-out: % control
T8 construct: purchased DiscoveRx KINOMEscan

TRKC = target: T9, TRKC (Homo sapiens, UniProt Q16288); test: KinomeScan; assay type: binding; conditions: read-out: % control
T9 construct: purchased DiscoveRx KINOMEscan

BaF3-INSR = test: Anti-proliferative effects, INSR transformed isogenic BaF3 cells; assay type: cell-based; conditions: Mus musculus, read-out: IC50 (anti-proliferative; GI50)
KIT(V559D,V654A) = target: T10, KIT(V559D,V654A) (Homo sapiens, UniProt P10721, V559D/V654A); test: KinomeScan; assay type: binding; conditions: read-out: % control
T10 construct: purchased DiscoveRx KINOMEscan
T10 sequence (P10721 26-976 V559D/V654A): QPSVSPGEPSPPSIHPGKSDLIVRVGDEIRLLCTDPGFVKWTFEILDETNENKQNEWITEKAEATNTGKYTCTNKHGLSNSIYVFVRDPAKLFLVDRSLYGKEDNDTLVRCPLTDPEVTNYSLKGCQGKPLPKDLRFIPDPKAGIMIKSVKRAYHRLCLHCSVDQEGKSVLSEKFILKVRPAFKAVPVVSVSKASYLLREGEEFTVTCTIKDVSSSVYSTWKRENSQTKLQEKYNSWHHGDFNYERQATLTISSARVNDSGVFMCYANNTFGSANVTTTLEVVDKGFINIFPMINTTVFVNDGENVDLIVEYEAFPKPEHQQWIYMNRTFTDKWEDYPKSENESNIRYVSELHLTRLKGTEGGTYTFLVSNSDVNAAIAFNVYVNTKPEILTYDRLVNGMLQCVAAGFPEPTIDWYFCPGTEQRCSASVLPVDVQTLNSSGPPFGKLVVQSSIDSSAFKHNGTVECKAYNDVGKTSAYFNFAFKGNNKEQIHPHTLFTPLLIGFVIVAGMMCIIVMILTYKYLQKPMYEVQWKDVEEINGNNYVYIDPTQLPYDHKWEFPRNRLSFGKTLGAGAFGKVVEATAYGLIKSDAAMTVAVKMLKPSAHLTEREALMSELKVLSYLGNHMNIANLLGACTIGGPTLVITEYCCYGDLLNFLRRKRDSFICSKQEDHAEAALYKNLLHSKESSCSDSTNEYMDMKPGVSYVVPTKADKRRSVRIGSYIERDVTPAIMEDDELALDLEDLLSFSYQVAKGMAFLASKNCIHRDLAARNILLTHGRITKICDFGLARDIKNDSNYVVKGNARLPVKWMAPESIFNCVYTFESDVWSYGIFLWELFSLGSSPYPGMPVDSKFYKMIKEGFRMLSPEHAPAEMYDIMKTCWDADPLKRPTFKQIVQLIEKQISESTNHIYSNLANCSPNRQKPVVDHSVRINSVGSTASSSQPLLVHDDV

ROCK1 = target: T11, ROCK1 (Homo sapiens, UniProt Q13464); test: KinomeScan; assay type: binding; conditions: read-out: % control
T11 construct: purchased DiscoveRx KINOMEscan

H1355(EGFR wt) = test: Anti-proliferation, NSCLC cell lines (CellTiter-Glo); assay type: cell-based; conditions: Homo sapiens, NCI-H1355, 72 hours, triplet testing
Experimental: (§1) The human cancer cell lines H1975, HCC827, H2122, CHO, CHL and H1355 were purchased from the American Type Culture Collection (ATCC) (Manassas, VA, USA). PC9 cell line was purchased from the Sigma-Aldrich (St. Louis, MO, USA). A549, H3255 were purchased from Cobioer Biosciences CO., LTD (Nanjing, China). […] A549 and H1355 were cultured in F-12K Nutrient Mixture (kaighn's Modification) (Gibco, USA) with 10% FBS and supplemented with 2% L-glutamine and 1% pen/strep. H3255 was cultured in BEGM media (LONZA, USA) with 10% FBS and supplemented with 2% L-glutamine and 1% pen/strep.

H3255 (EGFRL858R) = test: as above; assay type: cell-based; conditions: Homo sapiens, NCI-H3255, 72 hours, triplet testing
Experimental: as §1

PC-9 (EGFR del19) = test: as above; assay type: cell-based; conditions: Homo sapiens, 72 hours, triplet testing
Experimental: as §1

H1703 (EGFR wt) = test: as above; assay type: cell-based; conditions: Homo sapiens, NCI-H1703, 72 hours, triplet testing
Experimental: as §1

H2122 (EGFR wt) = test: as above; assay type: cell-based; conditions: Homo sapiens, NCI-H2122, 72 hours, triplet testing
Experimental: as §1

HCC827 (EGFR del19) = test: as above; assay type: cell-based; conditions: Homo sapiens, 72 hours, triplet testing
Experimental: as §1

A549 (EGFR wt) = test: as above; assay type: cell-based; conditions: Homo sapiens, 72 hours, triplet testing
Experimental: as §1

MYLK = target: T12, MYLK (Homo sapiens, UniProt Q15746); test: KinomeScan; assay type: binding; conditions: read-out: % control
T12 construct: purchased DiscoveRx KINOMEscan

EPHB4 = target: T13, EPHB4 (Homo sapiens, UniProt P54760); test: KinomeScan; assay type: binding; conditions: read-out: % control
T13 construct: purchased DiscoveRx KINOMEscan
T13 sequence (P54760 16-987): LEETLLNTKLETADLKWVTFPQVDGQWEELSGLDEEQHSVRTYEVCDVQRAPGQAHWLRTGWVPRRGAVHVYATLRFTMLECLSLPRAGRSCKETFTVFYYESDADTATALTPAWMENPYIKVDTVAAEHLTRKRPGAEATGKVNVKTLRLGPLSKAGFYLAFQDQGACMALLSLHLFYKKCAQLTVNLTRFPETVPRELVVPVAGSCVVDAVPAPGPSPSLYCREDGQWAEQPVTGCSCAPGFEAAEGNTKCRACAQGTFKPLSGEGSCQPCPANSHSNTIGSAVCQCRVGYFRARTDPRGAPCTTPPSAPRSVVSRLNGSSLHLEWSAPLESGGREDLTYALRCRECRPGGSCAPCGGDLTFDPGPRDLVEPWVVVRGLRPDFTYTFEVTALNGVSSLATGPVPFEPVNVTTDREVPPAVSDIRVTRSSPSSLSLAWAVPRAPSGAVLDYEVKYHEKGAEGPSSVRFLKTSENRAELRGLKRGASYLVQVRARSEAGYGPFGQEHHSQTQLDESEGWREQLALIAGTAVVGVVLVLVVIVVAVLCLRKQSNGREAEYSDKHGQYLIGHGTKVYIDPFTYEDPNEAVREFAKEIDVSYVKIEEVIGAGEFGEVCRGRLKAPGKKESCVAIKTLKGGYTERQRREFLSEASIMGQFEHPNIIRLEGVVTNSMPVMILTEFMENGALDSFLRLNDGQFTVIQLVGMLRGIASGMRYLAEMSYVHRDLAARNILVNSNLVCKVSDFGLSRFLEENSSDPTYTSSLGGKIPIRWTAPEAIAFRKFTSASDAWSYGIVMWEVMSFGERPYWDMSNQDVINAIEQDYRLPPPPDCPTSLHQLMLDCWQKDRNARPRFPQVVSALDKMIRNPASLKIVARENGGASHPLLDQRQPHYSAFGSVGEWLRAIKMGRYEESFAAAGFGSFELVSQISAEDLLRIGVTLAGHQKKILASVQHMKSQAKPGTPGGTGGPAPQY

GSK3A = target: T14, GSK3A (Homo sapiens, UniProt P49840); test: KinomeScan; assay type: binding; conditions: read-out: % control
T14 construct: purchased DiscoveRx KINOMEscan
T14 sequence (P49840 whole entry): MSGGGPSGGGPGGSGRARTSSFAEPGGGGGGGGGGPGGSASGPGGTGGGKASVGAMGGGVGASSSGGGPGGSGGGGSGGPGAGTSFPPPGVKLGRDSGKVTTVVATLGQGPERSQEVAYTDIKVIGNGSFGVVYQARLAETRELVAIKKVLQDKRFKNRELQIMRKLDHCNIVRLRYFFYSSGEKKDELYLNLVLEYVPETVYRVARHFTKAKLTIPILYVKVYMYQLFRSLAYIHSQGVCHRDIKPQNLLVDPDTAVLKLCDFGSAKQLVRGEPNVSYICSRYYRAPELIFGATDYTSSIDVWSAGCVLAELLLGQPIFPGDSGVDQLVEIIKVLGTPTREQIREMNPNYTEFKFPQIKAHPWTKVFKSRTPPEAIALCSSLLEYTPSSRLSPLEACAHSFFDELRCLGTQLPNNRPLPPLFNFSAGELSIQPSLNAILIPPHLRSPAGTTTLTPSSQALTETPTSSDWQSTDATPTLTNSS

BaF3-TEL-EGFR = test: Anti-proliferation, BaF3 isogenic cell lines (CellTiter-Glo); assay type: cell-based; conditions: Mus musculus, 72 hours, triplet testing
FGFR1 = target: T15, FGFR1 (Homo sapiens, UniProt P11362); test: KinomeScan; assay type: binding; conditions: read-out: % control
T15 construct: purchased DiscoveRx KINOMEscan

PHKG1 = target: T16, PHKG1 (Homo sapiens, UniProt Q16816); test: KinomeScan; assay type: binding; conditions: read-out: % control
T16 construct: purchased DiscoveRx KINOMEscan
T16 sequence (Q16816 whole entry): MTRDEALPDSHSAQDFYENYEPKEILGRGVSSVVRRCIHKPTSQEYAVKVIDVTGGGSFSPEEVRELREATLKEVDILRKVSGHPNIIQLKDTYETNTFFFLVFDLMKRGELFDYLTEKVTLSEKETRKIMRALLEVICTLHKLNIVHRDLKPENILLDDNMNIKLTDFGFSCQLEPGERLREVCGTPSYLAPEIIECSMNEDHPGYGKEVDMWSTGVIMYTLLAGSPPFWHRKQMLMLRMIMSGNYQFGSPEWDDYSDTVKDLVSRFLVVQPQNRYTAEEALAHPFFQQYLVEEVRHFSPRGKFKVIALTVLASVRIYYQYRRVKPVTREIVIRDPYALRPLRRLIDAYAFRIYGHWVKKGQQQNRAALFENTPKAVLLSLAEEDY

EPHA4 = target: T17, EPHA4 (Homo sapiens, UniProt P54764); test: KinomeScan; assay type: binding; conditions: read-out: % control
T17 construct: purchased DiscoveRx KINOMEscan

PIK3CA(Q546K) = target: T18, PIK3CA(Q546K) (Homo sapiens, UniProt P42336, Q546K); test: KinomeScan; assay type: binding; conditions: read-out: % control
T18 construct: purchased DiscoveRx KINOMEscan
T18 sequence (P42336 whole entry Q546K): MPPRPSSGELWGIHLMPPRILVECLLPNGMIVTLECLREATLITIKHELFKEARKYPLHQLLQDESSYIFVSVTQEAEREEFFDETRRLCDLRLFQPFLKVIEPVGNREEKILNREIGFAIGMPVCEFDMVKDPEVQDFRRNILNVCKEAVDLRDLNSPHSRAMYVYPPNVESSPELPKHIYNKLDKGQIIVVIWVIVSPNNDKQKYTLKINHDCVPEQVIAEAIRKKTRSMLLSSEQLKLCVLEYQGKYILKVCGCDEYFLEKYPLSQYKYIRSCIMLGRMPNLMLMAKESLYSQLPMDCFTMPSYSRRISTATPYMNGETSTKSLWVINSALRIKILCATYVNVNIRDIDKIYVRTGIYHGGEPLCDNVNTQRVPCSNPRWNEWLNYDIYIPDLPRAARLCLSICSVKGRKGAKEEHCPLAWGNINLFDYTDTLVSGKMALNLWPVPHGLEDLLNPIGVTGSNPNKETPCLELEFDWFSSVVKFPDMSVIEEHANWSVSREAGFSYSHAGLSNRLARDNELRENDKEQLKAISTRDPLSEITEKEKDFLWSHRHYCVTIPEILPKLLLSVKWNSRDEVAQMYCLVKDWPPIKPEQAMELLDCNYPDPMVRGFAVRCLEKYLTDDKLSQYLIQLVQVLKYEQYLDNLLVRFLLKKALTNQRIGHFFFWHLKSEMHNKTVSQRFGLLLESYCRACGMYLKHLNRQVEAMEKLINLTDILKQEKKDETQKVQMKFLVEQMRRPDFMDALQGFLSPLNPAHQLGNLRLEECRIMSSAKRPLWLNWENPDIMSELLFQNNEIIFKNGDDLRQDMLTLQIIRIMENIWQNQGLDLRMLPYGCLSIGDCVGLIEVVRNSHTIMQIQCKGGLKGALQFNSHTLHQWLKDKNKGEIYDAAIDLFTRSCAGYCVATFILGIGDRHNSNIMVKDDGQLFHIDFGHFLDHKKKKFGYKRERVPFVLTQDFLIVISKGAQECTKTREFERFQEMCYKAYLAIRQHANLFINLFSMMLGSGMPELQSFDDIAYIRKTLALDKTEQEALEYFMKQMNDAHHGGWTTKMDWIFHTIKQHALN

ASK2 = target: T19, ASK2 (Homo sapiens, UniProt O95382); test: KinomeScan; assay type: binding; conditions: read-out: % control
T19 construct: purchased DiscoveRx KINOMEscan

BTK = target: T20, BTK (Homo sapiens, UniProt Q06187); test: KinomeScan; assay type: binding; conditions: read-out: % control
T20 construct: purchased Invitrogen (SelectScreen service)

MARK2 = target: T21, MARK2 (Homo sapiens, UniProt Q7KZI7); test: KinomeScan; assay type: binding; conditions: read-out: % control
T21 construct: purchased DiscoveRx KINOMEscan

PIK3CA(H1047Y) = target: T22, PIK3CA(H1047Y) (Homo sapiens, UniProt P42336, H1047Y); test: KinomeScan; assay type: binding; conditions: read-out: % control
T22 construct: purchased DiscoveRx KINOMEscan
T22 sequence (P42336 whole entry H1047Y): as the sequence (P42336 whole entry Q546K) above, with K546Q, H1047Y counted along it

LATS2 = target: T23, LATS2 (Homo sapiens, UniProt Q9NRM7); test: KinomeScan; assay type: binding; conditions: read-out: % control
T23 construct: purchased DiscoveRx KINOMEscan

RIOK1 = target: T24, RIOK1 (Homo sapiens, UniProt Q9BRS2); test: KinomeScan; assay type: binding; conditions: read-out: % control
T24 construct: purchased DiscoveRx KINOMEscan

CDK5 = target: T25, CDK5 (Homo sapiens, UniProt Q00535); test: KinomeScan; assay type: binding; conditions: read-out: % control
T25 construct: purchased DiscoveRx KINOMEscan

[1] = system: BaF3-FL-EGFR-del19-T790M-C797S; test: Anti-proliferation, BaF3 isogenic cell lines (CellTiter-Glo); assay type: cell-based; conditions: Mus musculus, 72 hours, triplet testing
NDR2 = target: T26, NDR2 (Homo sapiens, UniProt Q9Y2H1); test: KinomeScan; assay type: binding; conditions: read-out: % control
T26 construct: purchased DiscoveRx KINOMEscan
T26 sequence (Q9Y2H1 whole entry): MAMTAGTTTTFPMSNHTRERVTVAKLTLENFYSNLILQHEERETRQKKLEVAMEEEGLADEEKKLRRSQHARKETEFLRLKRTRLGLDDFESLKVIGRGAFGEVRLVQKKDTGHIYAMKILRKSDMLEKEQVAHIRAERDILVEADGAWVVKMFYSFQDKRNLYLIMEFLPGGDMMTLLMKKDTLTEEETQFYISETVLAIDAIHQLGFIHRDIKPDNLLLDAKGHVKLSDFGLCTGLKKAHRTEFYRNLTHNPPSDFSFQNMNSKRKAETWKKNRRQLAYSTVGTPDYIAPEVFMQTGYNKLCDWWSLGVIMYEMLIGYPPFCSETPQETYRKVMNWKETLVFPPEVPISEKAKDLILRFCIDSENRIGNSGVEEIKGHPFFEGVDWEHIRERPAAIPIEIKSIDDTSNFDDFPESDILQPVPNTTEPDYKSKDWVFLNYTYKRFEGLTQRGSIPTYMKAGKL

GSK3B = target: T27, GSK3B (Homo sapiens, UniProt P49841); test: KinomeScan; assay type: binding; conditions: read-out: % control
T27 construct: purchased DiscoveRx KINOMEscan

SMILES: C=CC(=O)N1CCC[C@@H](n2nc(-c3ccc(OCc4cccc(C)n4)c(Cl)c3)c3c(N)ncnc32)C1 [CHMFL-EGFR-26]
- remaining binding at 1 µM (CDKL2): 100%
- remaining binding at 1 µM (MAP4K4): 46%
- remaining binding at 1 µM (HCK): 44%
- remaining binding at 1 µM (ROCK2): 100%
- remaining binding at 1 µM (MAP3K4): 86%
- GI50 (BaF3-FL-EGFR-L858R-T790M): 6 nM
- remaining binding at 1 µM (HIPK4): 100%
- remaining binding at 1 µM (SRPK2): 100%
- remaining binding at 1 µM (TAOK3): 100%
- remaining binding at 1 µM (TRKC): 100%
- IC50 (BaF3-INSR): 2800 nM
- remaining binding at 1 µM (KIT(V559D,V654A)): 89%
- remaining binding at 1 µM (ROCK1): 100%
- GI50 (H1355(EGFR wt)): 8100 nM
- GI50 (H3255 (EGFRL858R)): 27 nM
- GI50 (PC-9 (EGFR del19)): 35 nM
- GI50 (H1703 (EGFR wt)): 7700 nM
- GI50 (H2122 (EGFR wt)): 3500 nM
- GI50 (HCC827 (EGFR del19)): 36 nM
- GI50 (A549 (EGFR wt)): 5400 nM
- remaining binding at 1 µM (MYLK): 100%
- remaining binding at 1 µM (EPHB4): 100%
- remaining binding at 1 µM (GSK3A): 100%
- GI50 (BaF3-TEL-EGFR): 5400 nM
- remaining binding at 1 µM (FGFR1): 100%
- remaining binding at 1 µM (PHKG1): 100%
- remaining binding at 1 µM (EPHA4): 100%
- remaining binding at 1 µM (PIK3CA(Q546K)): 83%
- remaining binding at 1 µM (ASK2): 68%
- remaining binding at 1 µM (BTK): 0.45%
- remaining binding at 1 µM (MARK2): 95%
- remaining binding at 1 µM (PIK3CA(H1047Y)): 100%
- remaining binding at 1 µM (LATS2): 96%
- remaining binding at 1 µM (RIOK1): 90%
- remaining binding at 1 µM (CDK5): 100%
- GI50 [1]: 2100 nM
- remaining binding at 1 µM (NDR2): 100%
- remaining binding at 1 µM (GSK3B): 97%
